# According to ChEMBL document CHEMBL1201862, “PubChem BioAssay data set” (2004):
# Counter-ions that a name gives are not always drawn.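 The compound was tested at five concentrations on cells cultured in 96-well plates, with a 48-hour exposure period. Here, GI50 denotes the concentration required for 50% inhibition of growth.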 Activity calls are given as the source filed them. Rule as the data show it: active = GI50 up to about 1.1 µM and inactive = higher.
# How the values were obtained:
# Experiment in all cases: NCI-60 cell line screen, 48 h
# [1] = system: DLD-1
# [2] = system: HOP-18
# [3] = system: DMS-114
# [4] = system: LXFL 529
# [5] = system: KM-20L2
# [6] = system: SNB-78
# [7] = system: M19-MEL
# [8] = system: XF498
# [9] = system: RXF 631
SMILES,GI50 [1],GI50 [2],GI50 [3],GI50 [4],GI50 [5],GI50 [6],GI50 [7],GI50 [8],GI50 [9]
C1=c2ccccc2=C2C(=C(c3ccccc3)C(c3ccccc3)=NN2c2ccccc2)S1,> 100 µM (inactive),> 100 µM (inactive),> 100 µM (inactive),> 100 µM (inactive),> 100 µM (inactive),> 100 µM (inactive),> 100 µM (inactive),,
O=C1NC2OCC(O)C(O)C2O1 (configuration not stated),> 100 µM (inactive),> 100 µM (inactive),> 100 µM (inactive),> 100 µM (inactive),> 100 µM (inactive),> 100 µM (inactive),> 100 µM (inactive),,
CCCCc1c2c(nc3c1CCC/C3=C\c1ccccc1)C(=O)C(CN(C)C)CC2 (configuration not stated),17.1 µM (inactive),23.6 µM (inactive),17.7 µM (inactive),8.38 µM (inactive),17.8 µM (inactive),20.7 µM (inactive),16.7 µM (inactive),14.9 µM (inactive),
Clc1ccc(/N=N/c2nc3ccccc3nc2/N=N/c2ccc(Cl)cc2Cl)c(Cl)c1,> 100 µM (inactive),,> 100 µM (inactive),78.5 µM (inactive),> 100 µM (inactive),> 100 µM (inactive),> 100 µM (inactive),> 100 µM (inactive),
CN(C)c1nc(Oc2nc(N(C)C)nc(N(C)C)n2)nc(N(C)C)n1,> 100 µM (inactive),> 100 µM (inactive),51.4 µM (inactive),> 100 µM (inactive),> 100 µM (inactive),61.4 µM (inactive),82.4 µM (inactive),84.7 µM (inactive),
O=c1c(Sc2c(O)c3ccccc3c3ccccc3c2=O)c(O)c2ccccc2c2ccccc12,51.3 µM (inactive),24.2 µM (inactive),25.4 µM (inactive),30 µM (inactive),37.4 µM (inactive),,31.8 µM (inactive),,37.2 µM (inactive)
C=CCc1cc(OC)c2c(c1)C(O)CC(c1ccc(OC)c(OC)c1)O2 (configuration not stated),> 100 µM (inactive),> 100 µM (inactive),59.8 µM (inactive),> 100 µM (inactive),> 100 µM (inactive),> 100 µM (inactive),> 100 µM (inactive),,
CCCCCCCCCCCc1c(O)c(=O)c2c(oc3c(=O)c(CCCCCCCCCCC)c(O)c(=O)c3n2-c2ccc(N(C)C)cc2)c1=O,18.8 µM (inactive),22.6 µM (inactive),24.8 µM (inactive),21.2 µM (inactive),19.3 µM (inactive),55.2 µM (inactive),,21.5 µM (inactive),
CC(C)NC1CCCCC2c3ccccc3C12O (configuration not stated),,> 100 µM (inactive),> 100 µM (inactive),> 100 µM (inactive),> 100 µM (inactive),> 100 µM (inactive),> 100 µM (inactive),> 100 µM (inactive),
CCN(CC)c1ccc(/N=C2\C=C(Cl)C(=O)c3ncccc32)c(C)c1,4.06 µM (inactive),3.08 µM (inactive),2.67 µM (inactive),,5.65 µM (inactive),13.1 µM (inactive),4.68 µM (inactive),5.78 µM (inactive),13.5 µM (inactive)
O=C(CCCCCCCCC(=O)OCCCn1cc(C(=O)NC(=O)OCc2ccccc2)c(=O)[nH]c1=O)OCCCn1cc(C(=O)NC(=O)OCc2ccccc2)c(=O)[nH]c1=O,> 100 µM (inactive),> 100 µM (inactive),,,> 100 µM (inactive),> 100 µM (inactive),> 100 µM (inactive),,> 100 µM (inactive)
NCc1cc(O)c(O)c(O)c1,> 100 µM (inactive),> 100 µM (inactive),> 100 µM (inactive),> 100 µM (inactive),> 100 µM (inactive),> 100 µM (inactive),80.4 µM (inactive),> 100 µM (inactive),> 100 µM (inactive)
Cc1ccc(NC(=O)C(=O)CC(=O)c2c(C)[n+]([O-])c3ccccc3[n+]2[O-])cc1,,30.9 µM (inactive),18.2 µM (inactive),35.2 µM (inactive),30.8 µM (inactive),49.4 µM (inactive),16.4 µM (inactive),,36.5 µM (inactive)
CCSc1nc(N2CCCC2)s[s+]1.[O-][Cl+3]([O-])([O-])[O-],85.3 µM (inactive),> 100 µM (inactive),17.6 µM (inactive),22.7 µM (inactive),55.6 µM (inactive),74.8 µM (inactive),2.3 µM (inactive),31 µM (inactive),
O=C(O)C12C3CCCC1C2CC3 (configuration not stated),> 100 µM (inactive),> 100 µM (inactive),> 100 µM (inactive),> 100 µM (inactive),> 100 µM (inactive),> 100 µM (inactive),> 100 µM (inactive),> 100 µM (inactive),> 100 µM (inactive)
CS(=O)(=O)Sc1ccc(Cl)cc1,13.9 µM (inactive),26.8 µM (inactive),,11.3 µM (inactive),11.9 µM (inactive),0.713 µM (active),6.82 µM (inactive),10.7 µM (inactive),7.38 µM (inactive)
O=C(/C=C/c1ccccc1)NC1C=Nc2ccc(Cl)cc2NC1=O (configuration not stated),20.8 µM (inactive),20.7 µM (inactive),5.66 µM (inactive),23.9 µM (inactive),26 µM (inactive),53.7 µM (inactive),23 µM (inactive),13.3 µM (inactive),19.5 µM (inactive)
O=C(O)CC(NC(=O)CP(=O)(O)O)C(=O)O (configuration not stated),66.4 µM (inactive),3100 µM (inactive),741 µM (inactive),,158 µM (inactive),973 µM (inactive),97.9 µM (inactive),596 µM (inactive),
Nc1nc(Cl)c2ncn(CCCC(c3ccccc3)P(=O)(O)O)c2n1 (configuration not stated),> 100 µM (inactive),> 100 µM (inactive),> 100 µM (inactive),> 100 µM (inactive),> 100 µM (inactive),> 100 µM (inactive),> 100 µM (inactive),,
CCCCCC#COC1CC(C)CC[C@@H]1C(C)C (some centres not stated),41.3 µM (inactive),> 100 µM (inactive),,97.9 µM (inactive),61.1 µM (inactive),> 100 µM (inactive),48 µM (inactive),,
O=C1C(Cl)=C(Cl)C(=O)N1c1ccc(F)cc1 [FLUOROIMIDE],18.2 µM (inactive),21.1 µM (inactive),19.7 µM (inactive),15.9 µM (inactive),22.1 µM (inactive),27 µM (inactive),19.5 µM (inactive),19.9 µM (inactive),28.9 µM (inactive)
CC1=NCCc2c1[nH]c1cc(O)ccc21 [HARMALOL HYDROCHLORIDE],> 100 µM (inactive),> 100 µM (inactive),> 100 µM (inactive),> 100 µM (inactive),> 100 µM (inactive),> 100 µM (inactive),> 100 µM (inactive),> 100 µM (inactive),> 100 µM (inactive)
